Data from US20080299076A1, “Compunds and compositions that cause non-apoptotic cell death and uses thereof” (priority 2006, published 2008).
Entries after “also recorded” stand apart in the source; their conditions may differ. Where two headings read alike, the source gives them in different places.

What was measured:
[1] = tested on: BJ-TERT/LT/ST/RAS^V12 cells; test: Alamar Blue viability assay; assay type: cell-based, human; settings: for IC50: BJ-TERT/LT/ST/RAS^V12 (BJELR) cells, read-out: IC50 (lethality); for Selective lethality / activity of erastin analog: BJ-TERT/LT/ST/RAS^V12 cells versus BJ-TERT cells
Procedure: (a) Calu-1 lung carcinoma cells harboring oncogenic KRAS were infected with lentivirus containing shRNAs targeting KRAS or GFP. Sequences of shRNAs are indicated by starting nucleotide (nt) in the KRAS mRNA coding sequence. Cells were treated with erastin and viability measured by Trypan Blue exclusion. (b) Knockdown of KRAS was confirmed by western blot. (c,d) A673 cells harboring oncogenic BRAF were infected with lentiviral shRNAs targeting BRAF exon 5 (c) or the 5′ UTR (d), luciferase (LUC) (c) or GFP (d). Cells were treated with erastin and viability measured using Alamar Blue (c) and Trypan Blue (d). (e) Knockdown of BRAF was confirmed by western blot. […] BJ-TERT/LT/ST/RAS^V12 cells were treated with erastin alone or in with a MEK inhibitor U0126 (20 μM), MEK inhibitor I (10 μM) or MEK 1/2 inhibitor (50 μM). After 48 h, viability was determined using Trypan Blue. (g) Structures of certain erastin and related analogs. (h) and (i) Dose-response curves were measured for erastin A3 and erastin B2 in BJ-TERT/LT/ST/RAS^V12 cells (black squares) or BJ-TERT cells (grey circles). (j) Calu-1 lung carcinoma cells harboring oncogenic KRAS were infected with lentivirus containing shRNAs targeting KRAS or GFP. Sequences of shRNAs are indicated by starting nucleotide (nt) in the KRAS mRNA coding sequence. Cells were treated with erastin and viability (y-axis) measured by Trypan Blue exclusion. Cells were treated with erastin for 24 hours, and percent inhibition of viability (y-axis) measured using Alamar Blue (k) and Trypan Blue (l). (m) Structures of erastin and related analogs. (n) Dose-response curves were measured for erastin A6, erastin B2, erastin A8 and erastin A9 in BJ-TERT/LT/ST/RAS^V12 cells (squares) or BJ-TERT cells (circles) using Alamar Blue.
Alamar Blue metabolism: 10% Alamar Blue was added to assay plates, which were then incubated for an additional 16 hours. Red fluorescence, resulting from reduction of Alamar Blue, was detected on a Victor3 platereader (ex: 530, em: 590).
Table 2. Activity of RAS-selective lethal compound erastin in tumor cell lines. IC50 values (ng/mL) are shown using the Alamar Blue viability assay. BJ engineered tumor cells express TERT, LT, ST, and oncogenic RAS. Isogenic RAS^V12 lacking cells are identical but lack HRAS^V12. BJ-DRD cells are derived from BJ cells and contain TERT, oncogenic RAS, a truncated from of p53 (p53DD) that disrupts the tetramerization of endogenous p53, a CDK4(R24C) mutant resistant to inhibition by p16INK4A and p151NK4B (the major negative regulators of CDK4) and cyclin D1. These latter protein substitute for LT. HCT-116, A549, Calu-1, and MIA PaCa-2 are tumor cells derived from cancers (colon, lung, lung and pancreatic, respectively) known to have activating mutations in RAS.

[2] = tested on: BJ-TERT/LT/ST/RAS^V12 cells; test: Suppression of erastin-induced cell death (suppressor screen and follow-up); assay type: cell-based, human; settings: co-treatment with erastin
CCRF-CEM parental cells = test: Cell death in taxol/vinblastine resistance panel; assay type: cell-based; settings: Homo sapiens
Procedure: (§1) In certain embodiments, the sensitivity to erastin, can be tested in cell lines that are resistant to taxol and vinblastine. The sensitivity of CCRF-CEM parental, and taxol and vinblastine resistant derivative cells to erastin was tested. […] Erastin analogues can be tested to ensure their effectiveness in inducing cell death in tumor cell line which are resistant to taxol or vinblastin, or other ant-tumor agents.

[3] = tested on: taxol resistant CCRF-CEM derivative cells; test: Cell death in taxol/vinblastine resistance panel; assay type: cell-based; settings: Homo sapiens
Procedure: as §1

[4] = tested on: vinblastine resistant CCRF-CEM derivative cells; test: Cell death in taxol/vinblastine resistance panel; assay type: cell-based; settings: Homo sapiens
Procedure: as §1

VDAC2 = molecular target: T1, VDAC2 (Homo sapiens, UniProt P45880); test: VDAC2 binding assay (competition with radiolabelled erastin A9); settings: competition with tritium-labeled erastin A9
T1 construct: hexahistidine (pET-15b, thrombin site) (N); made in house; host or cells: E. coli
T1 sequence (P45880 1-294): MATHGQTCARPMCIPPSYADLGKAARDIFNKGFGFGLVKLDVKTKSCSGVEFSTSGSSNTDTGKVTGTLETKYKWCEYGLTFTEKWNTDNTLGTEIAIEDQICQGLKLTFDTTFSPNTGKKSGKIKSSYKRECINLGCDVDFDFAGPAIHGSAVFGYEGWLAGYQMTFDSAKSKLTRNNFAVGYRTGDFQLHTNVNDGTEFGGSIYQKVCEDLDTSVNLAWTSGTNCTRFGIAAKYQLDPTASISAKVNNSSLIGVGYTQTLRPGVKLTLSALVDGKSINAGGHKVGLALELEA
Procedure: Given the interactions between erastin and VDAC using affinity-based target identification and VDAC functional assays, the direct binding of erastin to VDACs was investigated.
VDAC2 protein was isolated from E. coli using a modified version of the protocol originally described by Koppel et al. Bacterial cultures were grown in LB containing 50 mg/L ampicillin to an OD of 0.6, and induced using […] IPTG overnight. Cultures were harvested by centrifugation at 6000×g for 10 min. The pellet was then washed with dH2O and resuspended in buffer (20% sucrose, 20 mM Tris, pH 8.0, […] lysozyme) and incubated at 25° C. for 10 minutes. The lysate was then sonicated for 2×30 seconds and centrifuged at 15000×g for 20 minutes. The pellet was resuspended in resuspension buffer (4.5 M guanidine-HCl, 0.1M NaCl, 20 mM Tris, pH 8.0) and incubated for 1 hour at 25° C. The suspension was then centrifuged (20 minutes, 15000×g), and the supernatant was loaded on a NI-NTA Superflow column (Qiagen) pre-equilibrated with 5 volumes of resuspension buffer. The column was washed with 5 column volumes of resuspension buffer containing 10 mM imidazole. The protein was then eluted using resuspension buffer containing 225 mM imidazole. The eluate was dialysed against 0.1 M NaCl, 20 mM Tris, pH 8.0, and 2% LDAO (Fluka) overnight, and then concentrated via centrifugation to 4 mg/mL.
To assay direct binding of erastin analogs, 40 μg of purified VDAC2 was resuspended in 100 μL of Binding Buffer (25 mM HEPES, pH 8.0, 0.1% BSA, 7 mM MgCl2, 15 mM NaCl), and incubated in the presence of 20 μM radiolabelled erastin A9 and erastin A9 or erastin A8 for 15 minutes. The mixture was then deposited onto Protran BA85 0.45 μM binding filters (Whatman) using vacuum filtration. The filter was rinsed 5 times with 1 mL wash buffer (25 mM HEPES, 0.1% BSA), and then incubated in 5 mL scintillation liquid (Cytoscint, MP Biomedicals). Radioactivity was detected on a LKB Wallac 1211 RACKBETA Liquid Scintillation Counter.

CCOc1ccccc1-n1c(C(C)N2CCN(C(=O)COc3ccc(CN)cc3)CC2)nc2ccccc2c1=O (centres unmarked) [erastin A3]
IC50 [1]: 25 µM
Selective lethality / activity of erastin analog [1]: retained the ability to selectively kill BJ-TERT/LT/ST/RAS^V12 cells; also recorded: retained the ability to kill BJ-TERT/LT/ST/RAS^V12 cells but not BJ-TERT cells

C[C@@H]1C[C@@H]([C@H](O)CC2CC(=O)NC(=O)C2)C(=O)[C@@H](C)C1 [cyclohexamide]
Effect on erastin-induced cell death [2]: suppressed

Oc1ncnc2[nH]ncc12 [allopurinol]
Effect on erastin-induced cell death [2]: did not affect erastin-induced cell death

CC(=O)O[C@H]1C(=O)[C@@]2(C)[C@H]([C@H](OC(=O)c3ccccc3)[C@]3(O)C[C@H](OC(=O)[C@H](O)[C@@H](NC(=O)c4ccccc4)c4ccccc4)C(C)=C1C3(C)C)[C@]1(OC(C)=O)CO[C@@H]1C[C@@H]2O [taxol]
IC50 (CCRF-CEM parental cells): 1 nM
IC50 [3]: 560 nM
IC50 [4]: 1380 nM

COC(=O)CC(NC(=O)OC(C)(C)C)C(=O)CF (centres unmarked) [Boc-Asp(Ome)-fluoromethyl ketone]
Effect on erastin-induced cell death [2]: does not block cell death induced by erastin

COc1ccc2[nH]cc(CCNC(C)=O)c2c1 [melatonin]
Effect on erastin-induced cell death [2]: did not affect erastin-induced cell death

CCOc1ccccc1-n1c(C(C)N2CCN(C(=O)COc3ccc(Cl)cc3)CC2)nc2cc(NC(C)=O)ccc2c1=O (centres unmarked) [erastin A9, N-[2-(1-{4-[2-(4-chloro-phenoxy)-acetyl]-piperazin-1-yl}-ethyl)-3-(2-ethoxy-phenyl)-4-oxo-3,4-dihydro-quinazolin-7-yl]-acetamide]
IC50 ([1]; Homo sapiens): 1.9 µM
Direct binding to VDAC2 (VDAC2): directly binds VDAC2
Kd (VDAC2): 112 nM

CC(C)NC(=O)N(CCN1CCN(C(=O)COc2ccc(Cl)cc2)CC1)Cc1ccc(CN)cc1 [erastin B2, 1-(4-Aminomethyl-benzyl)-1-(2-{4-[2-(4-chloro-phenoxy)-acetyl]-piperazin-1-yl}-ethyl)-3-isopropyl-urea]
Selective lethality / activity of erastin analog [1]: lacking activity in cells; also recorded: lacks activity
IC50 ([1]; Homo sapiens): > 50 µM

Cn1cnc(N)c2ncnc1-2 [3-methyladenine]
Effect on erastin-induced cell death [2]: not suppressed

CC(C)(Oc1ccc(C2CC2(Cl)Cl)cc1)C(=O)O (centres unmarked) [ciprofibrate]
Effect on erastin-induced cell death [2]: did not affect erastin-induced cell death

Cc1cc(C(C)(C)C)c(O)c(C(C)(C)C)c1 [butylated hydroxytoluene]
Effect on erastin-induced cell death [2]: prevented erastin-induced death

O=c1[nH]c(=O)c2c[nH]nc2[nH]1 [oxypurinol]
Effect on erastin-induced cell death [2]: did not affect erastin-induced cell death

CCOc1ccccc1-n1c(C(C)N2CCN(C(=O)COc3ccc(CN)cc3)CC2)nc2ccccc2c1=O (centres unmarked) [erastin A6, 2-(1-{4-[2-(4-Aminomethyl-phenoxy)-acetyl]-piperazin-1-yl}-ethyl)-3-(2-ethoxy-phenyl)-3H-quinazolin-4-one]
Selective lethality / activity of erastin analog ([1]; listed as ERA-A6): selectively lethal to RAS^V12-expressing cells

Cc1c(C)c2c(c(C)c1O)CC[C@@](C)(CCC[C@H](C)CCC[C@H](C)CCCC(C)C)O2 [alpha-tocopherol]
Effect on erastin-induced cell death [2]: prevented erastin-induced death

CC1=C(/C=C/C(C)=C/C=C/C(C)=C/C=C/C=C(C)/C=C/C=C(C)/C=C/C2=C(C)CCCC2(C)C)C(C)(C)CCC1 [beta-carotene]
Effect on erastin-induced cell death [2]: prevented erastin-induced death

CC(C)NC(=O)N(CCN1CCN(C(=O)COc2ccc(Cl)cc2)CC1)Cc1ccc(F)cc1 [erastin B1]
IC50 [1]: 10 µM
Selective lethality / activity of erastin analog [1]: inactive

CC[C@]1(O)C[C@@H]2CN(CCc3c([nH]c4ccccc34)[C@@](C(=O)OC)(c3cc4c(cc3OC)N(C)[C@H]3[C@@](O)(C(=O)OC)[C@H](OC(C)=O)[C@]5(CC)C=CCN6CC[C@]43[C@@H]65)C2)C1 [vinblastine]
IC50 (CCRF-CEM parental cells): 1 nM
IC50 [3]: 93 nM
IC50 [4]: 370 nM
